Assay results from BindingDB's records for doi:10.1074/jbc.M707463200 (National Cancer Institute-Bethesda, 2008).
pKi: −log10 of the molar value.

Experiments:
Test in all cases: Binding Assay
Details in all cases: pH 7.4; 18 °C
[1] = molecular target: Serine/threonine-protein kinase MRCK alpha (Homo sapiens, UniProt Q5VT25)
Experimental: (§1) [3H]PDBu binding to the C1 domains of MRCK alpha/beta and PKC alpha/delta was measured using the polyethylene glycol precipitation assay.

[2] = molecular target: Serine/threonine-protein kinase MRCK beta (Homo sapiens, UniProt Q9Y5S2)
Chain of Serine/threonine-protein kinase MRCK beta (Q9Y5S2 whole entry): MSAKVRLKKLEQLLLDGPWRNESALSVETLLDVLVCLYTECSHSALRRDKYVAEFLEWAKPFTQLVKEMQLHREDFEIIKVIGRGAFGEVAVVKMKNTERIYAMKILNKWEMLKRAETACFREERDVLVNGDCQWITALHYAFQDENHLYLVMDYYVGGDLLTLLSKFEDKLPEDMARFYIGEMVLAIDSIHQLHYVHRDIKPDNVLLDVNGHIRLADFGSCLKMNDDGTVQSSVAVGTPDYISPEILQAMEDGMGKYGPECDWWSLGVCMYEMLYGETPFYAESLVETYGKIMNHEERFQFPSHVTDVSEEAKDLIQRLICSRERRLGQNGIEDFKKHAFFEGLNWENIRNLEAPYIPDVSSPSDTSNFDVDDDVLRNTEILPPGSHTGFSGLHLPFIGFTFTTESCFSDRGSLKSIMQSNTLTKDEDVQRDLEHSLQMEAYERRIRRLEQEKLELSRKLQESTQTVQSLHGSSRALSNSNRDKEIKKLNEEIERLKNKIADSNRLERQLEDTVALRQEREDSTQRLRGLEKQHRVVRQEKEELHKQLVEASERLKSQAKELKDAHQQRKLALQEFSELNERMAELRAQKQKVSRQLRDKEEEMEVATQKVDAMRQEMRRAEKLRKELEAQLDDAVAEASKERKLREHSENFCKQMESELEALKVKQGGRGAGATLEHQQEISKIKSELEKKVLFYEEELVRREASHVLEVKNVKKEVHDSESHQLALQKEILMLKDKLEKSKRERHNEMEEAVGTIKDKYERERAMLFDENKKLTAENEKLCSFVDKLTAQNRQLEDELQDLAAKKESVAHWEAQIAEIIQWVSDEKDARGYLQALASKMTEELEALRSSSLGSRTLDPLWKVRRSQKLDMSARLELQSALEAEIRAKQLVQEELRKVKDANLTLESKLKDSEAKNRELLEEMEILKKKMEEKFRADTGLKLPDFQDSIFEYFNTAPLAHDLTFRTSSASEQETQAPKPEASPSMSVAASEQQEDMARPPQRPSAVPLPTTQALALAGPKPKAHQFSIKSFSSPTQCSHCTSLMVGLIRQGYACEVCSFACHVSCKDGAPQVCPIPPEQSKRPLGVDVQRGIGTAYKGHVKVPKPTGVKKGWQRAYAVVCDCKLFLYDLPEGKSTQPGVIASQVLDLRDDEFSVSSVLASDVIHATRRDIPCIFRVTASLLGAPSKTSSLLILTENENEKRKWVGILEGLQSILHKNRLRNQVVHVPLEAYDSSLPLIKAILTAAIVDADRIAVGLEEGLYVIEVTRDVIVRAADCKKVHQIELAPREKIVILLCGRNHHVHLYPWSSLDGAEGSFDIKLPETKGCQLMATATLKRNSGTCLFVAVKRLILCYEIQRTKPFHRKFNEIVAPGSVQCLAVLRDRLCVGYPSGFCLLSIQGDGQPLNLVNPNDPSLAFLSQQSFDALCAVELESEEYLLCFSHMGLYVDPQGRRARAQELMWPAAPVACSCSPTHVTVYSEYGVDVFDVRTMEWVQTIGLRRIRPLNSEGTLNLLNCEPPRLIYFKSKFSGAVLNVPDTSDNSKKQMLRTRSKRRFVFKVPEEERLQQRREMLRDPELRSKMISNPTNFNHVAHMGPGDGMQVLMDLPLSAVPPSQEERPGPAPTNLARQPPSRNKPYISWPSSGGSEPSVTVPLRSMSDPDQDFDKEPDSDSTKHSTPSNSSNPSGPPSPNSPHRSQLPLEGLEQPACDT
Experimental: as §1

[3] = molecular target: Protein kinase C delta type (Homo sapiens, UniProt Q05655)
Chain of Protein kinase C delta type (Q05655 whole entry): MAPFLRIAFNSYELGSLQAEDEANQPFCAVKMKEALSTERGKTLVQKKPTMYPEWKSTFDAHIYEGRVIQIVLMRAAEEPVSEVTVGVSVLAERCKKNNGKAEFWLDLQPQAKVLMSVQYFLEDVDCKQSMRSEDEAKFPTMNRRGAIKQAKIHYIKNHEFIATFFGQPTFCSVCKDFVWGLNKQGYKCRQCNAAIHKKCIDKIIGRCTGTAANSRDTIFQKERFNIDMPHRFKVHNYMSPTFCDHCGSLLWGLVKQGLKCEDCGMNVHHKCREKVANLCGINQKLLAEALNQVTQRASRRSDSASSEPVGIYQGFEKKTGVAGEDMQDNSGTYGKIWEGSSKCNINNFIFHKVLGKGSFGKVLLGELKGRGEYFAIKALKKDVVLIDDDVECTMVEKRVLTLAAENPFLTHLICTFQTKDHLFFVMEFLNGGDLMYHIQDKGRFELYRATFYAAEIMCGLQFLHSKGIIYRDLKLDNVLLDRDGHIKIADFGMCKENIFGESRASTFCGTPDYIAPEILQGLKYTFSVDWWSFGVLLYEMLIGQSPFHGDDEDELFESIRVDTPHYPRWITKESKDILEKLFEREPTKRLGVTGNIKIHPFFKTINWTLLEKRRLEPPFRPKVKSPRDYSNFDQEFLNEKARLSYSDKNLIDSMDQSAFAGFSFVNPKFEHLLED
Experimental: as §1

[4] = molecular target: Protein kinase C alpha type (Homo sapiens, UniProt P17252)
Experimental: as §1

Chain of Serine/threonine-protein kinase MRCK alpha (Q5VT25 whole entry, the tested form may be a part): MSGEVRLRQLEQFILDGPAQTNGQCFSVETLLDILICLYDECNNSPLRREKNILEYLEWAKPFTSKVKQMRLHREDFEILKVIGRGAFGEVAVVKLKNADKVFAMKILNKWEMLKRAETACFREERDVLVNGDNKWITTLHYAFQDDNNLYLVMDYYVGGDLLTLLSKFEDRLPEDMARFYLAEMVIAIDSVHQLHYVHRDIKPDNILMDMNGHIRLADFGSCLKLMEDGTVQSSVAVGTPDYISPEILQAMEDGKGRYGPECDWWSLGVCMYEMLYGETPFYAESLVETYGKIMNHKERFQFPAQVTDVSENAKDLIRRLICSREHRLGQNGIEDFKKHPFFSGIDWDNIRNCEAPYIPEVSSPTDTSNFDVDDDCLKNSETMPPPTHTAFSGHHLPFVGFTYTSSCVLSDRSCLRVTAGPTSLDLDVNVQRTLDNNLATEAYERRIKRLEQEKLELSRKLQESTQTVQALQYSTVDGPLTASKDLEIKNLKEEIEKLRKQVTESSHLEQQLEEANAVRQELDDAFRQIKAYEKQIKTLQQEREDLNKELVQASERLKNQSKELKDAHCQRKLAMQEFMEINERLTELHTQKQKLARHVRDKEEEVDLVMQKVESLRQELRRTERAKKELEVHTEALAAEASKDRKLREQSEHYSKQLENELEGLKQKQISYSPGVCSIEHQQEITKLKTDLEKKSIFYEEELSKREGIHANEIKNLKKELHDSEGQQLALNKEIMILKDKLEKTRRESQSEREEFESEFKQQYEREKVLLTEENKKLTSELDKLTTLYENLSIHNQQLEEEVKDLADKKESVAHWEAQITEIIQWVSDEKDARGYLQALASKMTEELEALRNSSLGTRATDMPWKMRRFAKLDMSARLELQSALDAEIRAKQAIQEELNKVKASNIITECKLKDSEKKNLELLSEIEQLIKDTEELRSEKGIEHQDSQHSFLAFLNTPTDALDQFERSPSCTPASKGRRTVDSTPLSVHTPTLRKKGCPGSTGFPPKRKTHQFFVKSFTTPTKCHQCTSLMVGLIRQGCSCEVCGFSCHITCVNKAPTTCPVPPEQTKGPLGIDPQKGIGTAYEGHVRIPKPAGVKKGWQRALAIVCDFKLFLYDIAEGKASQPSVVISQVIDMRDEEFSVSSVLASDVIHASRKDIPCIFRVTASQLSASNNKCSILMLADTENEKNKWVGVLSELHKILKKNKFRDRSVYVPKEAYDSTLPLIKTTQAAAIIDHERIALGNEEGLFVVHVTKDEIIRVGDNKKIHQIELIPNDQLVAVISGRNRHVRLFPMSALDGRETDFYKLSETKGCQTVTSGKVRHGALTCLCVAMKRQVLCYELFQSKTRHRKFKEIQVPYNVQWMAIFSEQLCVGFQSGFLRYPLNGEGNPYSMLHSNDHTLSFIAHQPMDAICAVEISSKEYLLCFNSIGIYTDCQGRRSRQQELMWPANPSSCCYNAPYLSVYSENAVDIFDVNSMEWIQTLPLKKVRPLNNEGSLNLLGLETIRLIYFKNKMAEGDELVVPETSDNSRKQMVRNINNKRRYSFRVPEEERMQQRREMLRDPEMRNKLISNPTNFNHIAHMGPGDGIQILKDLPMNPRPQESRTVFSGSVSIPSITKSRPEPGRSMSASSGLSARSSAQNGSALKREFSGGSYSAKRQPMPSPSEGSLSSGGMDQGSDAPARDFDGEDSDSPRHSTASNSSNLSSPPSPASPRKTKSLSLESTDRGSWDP

Row | SMILES | pKi [1] | pKi [2] | pKi [3] | pKi [4]
1 | CCCCCCCC(=O)OC[C@H](CO)OC(=O)CCCCCCC | 5.55 | 5.16 |  | 
2 | CN(C)c1ccc(/C=C2/CC(CO)(COC(=O)c3ccc([N+](=O)[O-])cc3)OC2=O)cc1 (centres undefined) [DAG-lactone (130C045)] | 4.65 | 4.59 | 8.81 | 5.38
3 | CC(C)CC(C/C=C1/CC(CO)(COC(=O)C(C)(C)C)OC1=O)CC(C)C (centres undefined) [DAG-lactone (HK-434)] | 5.99 | 5.97 |  | 6.40
